Where two headings read alike, the source gives them in different places.
How the values were obtained:
Format in all cases: in vivo
Spodoptera littoralis = Spodoptera littoralis (Egyptian cotton leafworm) cotton leaf disc spray test; settings: for pest or weed control at 200 ppm: foliar, 72 h, read-out: control of Spodoptera littoralis; for damage to the test organisms: same protocol, 200 ppm
Excerpt: Spodoptera littoralis (Egyptian Cotton Leafworm):
Cotton leaf discs were placed on agar in a 24-well microtiter plate and sprayed with test solutions at an application rate of 200 ppm. After drying, the leaf discs were infested with 5 L1 larvae. The samples were checked for mortality, feeding behavior, and growth regulation 3 days after treatment (DAT).

Plutella xylostella = Plutella xylostella (diamond back moth) larval test on artificial diet; settings: same protocol, 200 ppm
Experimental: Plutella xylostella (Diamond Back Moth):
24-well microtiter plate (MTP) with artificial diet was treated with test solutions at an application rate of 200 ppm (concentration in well 18 ppm) by pipetting. After drying, the MTP's were infested with L2 larvae (7-12 per well). After an incubation period of 6 days, samples were checked for larval mortality and growth regulation.

Diabrotica balteata = Diabrotica balteata (corn root worm) larval test on artificial diet; settings: same protocol, 200 ppm
Experimental: Diabrotica balteata (Corn Root Worm):
A 24-well microtiter plate (MTP) with artificial diet was treated with test solutions at an application rate of 200 ppm (concentration in well 18 ppm) by pipetting. After drying, the MTP's were infested with L2 larvae (6-10 per well). After an incubation period of 5 days, samples were checked for larval mortality and growth regulation.

Tetranychus urticae = Tetranychus urticae (two-spotted spider mite) bean leaf disc spray test; settings: same protocol, 200 ppm
Excerpt: Tetranychus urticae (Two-Spotted Spider Mite):
Bean leaf discs on agar in 24-well microtiter plates were sprayed with test solutions at an application rate of 200 ppm. After drying, the leaf discs are infested with mite populations of mixed ages. 8 days later, discs are checked for egg mortality, larval mortality, and adult mortality.

Heliothis virescens = Heliothis virescens (tobacco budworm) egg test on artificial diet; settings: same protocol, 200 ppm
Experimental: Heliothis virescens (Tobacco Budworm):
Eggs (0-24 h old) were placed in 24-well microtiter plate on artificial diet and treated with test solutions at an application rate of 200 ppm (concentration in well 18 ppm) by pipetting. After an incubation period of 4 days, samples were checked for egg mortality, larval mortality, and growth regulation.

Thrips tabaci = Thrips tabaci (onion thrips) sunflower leaf disc spray test; settings: same protocol, 200 ppm
Experimental: Thrips tabaci (Onion Trips):
Sunflower leaf discs were placed on agar in a 24-well microtiter plate and sprayed with test solutions at an application rate of 200 ppm. After drying, the leaf discs were infested with an […] population of mixed ages. After an incubation period of 7 days, samples were checked for mortality.

[1] = 200 ppm sprayed on cotton leaf discs, L1 larvae, mortality, feeding behavior, growth regulation 3 DAT

| SMILES | pest or weed control at 200 ppm (Spodoptera littoralis; [1]) [%] | pest or weed control at 200 ppm (Spodoptera littoralis) [%] | damage to the test organisms (Plutella xylostella) | damage to the test organisms (Diabrotica balteata) | damage to the test organisms (Tetranychus urticae) | damage to the test organisms (Heliothis virescens) | damage to the test organisms (Thrips tabaci) | damage to the test organisms (Spodoptera littoralis) |
| --- | --- | --- | --- | --- | --- | --- | --- | --- |
| Cc1cc(C2=NOC(c3cc(Cl)cc(Cl)c3)(C(F)(F)F)C2)ccc1/C(N)=N/O (centres unmarked) [Compound A1, 4-[5-(3,5-dichloro-phenyl)-5-trifluoromethyl-4,5-dihydro-isoxazol-3-yl]-N-hydroxy-2-methyl-benzamidine] | ≥ 80 | – | – | – | – | – | – | – |
| C#CCONC(=N)c1ccc(C2=NOC(c3cc(Cl)cc(Cl)c3)(C(F)(F)F)C2)cc1C (centres unmarked) [Compound A2, 4-[5-(3,5-dichloro-phenyl)-5-trifluoromethyl-4,5-dihydro-isoxazol-3-yl]-2-methyl-N-prop-2-ynyloxy-benzamidine] | – | ≥ 80 | – | – | – | – | – | – |
| [H]/N=C(\NOC)c1ccc(C2=NOC(c3cc(Cl)cc(Cl)c3)(C(F)(F)F)C2)cc1C (centres unmarked) [Compound A3] | ≥ 80 | – | – | – | – | – | – | – |
| [H]/N=C(\NOCC)c1ccc(C2=NOC(c3cc(Cl)cc(Cl)c3)(C(F)(F)F)C2)cc1C (centres unmarked) [Compound A4] | ≥ 80 | – | – | – | – | – | – | – |
| [H]/N=C(\NOCC=C)c1ccc(C2=NOC(c3cc(Cl)cc(Cl)c3)(C(F)(F)F)C2)cc1C (centres unmarked) [Compound A5] | ≥ 80 | – | – | – | – | – | – | – |
| [H]/N=C(\NOCCCC)c1ccc(C2=NOC(c3cc(Cl)cc(Cl)c3)(C(F)(F)F)C2)cc1C (centres unmarked) [Compound A6] | ≥ 80 | – | – | – | – | – | – | – |
| CCOC(=O)/C=C/CONC(=N)c1ccc(C2=NOC(c3cc(Cl)cc(Cl)c3)(C(F)(F)F)C2)cc1C (centres unmarked) [Compound A13] | – | – | little or no damage | little or no damage | little or no damage | little or no damage | little or no damage | little or no damage |
| Cc1cc(C2=NOC(c3cc(Cl)cc(Cl)c3)(C(F)(F)F)C2)ccc1C(=N)NOCC1CCCCO1 (centres unmarked) [Compound A14] | – | – | little or no damage | little or no damage | little or no damage | little or no damage | little or no damage | little or no damage |
| Cc1cc(C2=NOC(c3cc(Cl)cc(Cl)c3)(C(F)(F)F)C2)ccc1C(=N)NOCc1cc(Cl)cc2c1OCOC2 (centres unmarked) [Compound A19] | – | – | little or no damage | little or no damage | little or no damage | little or no damage | little or no damage | little or no damage |
| Cc1cc(C2=NOC(c3cc(Cl)cc(Cl)c3)(C(F)(F)F)C2)ccc1C(=N)NOC(C)C(=O)Nc1ccccc1 (centres unmarked) [Compound A24] | – | – | little or no damage | little or no damage | little or no damage | little or no damage | little or no damage | little or no damage |
| [H]/N=C(\NOCC#CC)c1ccc(C2=NOC(c3cc(Cl)cc(Cl)c3)(C(F)(F)F)C2)cc1C (centres unmarked) [Compound A25] | ≥ 80 | – | – | – | – | – | – | – |
| Cc1cc(C2=NOC(c3cc(Cl)cc(Cl)c3)(C(F)(F)F)C2)ccc1C(=N)NOCC1CCCCC1 (centres unmarked) [Compound A26] | – | – | little or no damage | little or no damage | little or no damage | little or no damage | little or no damage | little or no damage |
| [H]/N=C(\NOCCC)c1ccc(C2=NOC(c3cc(Cl)cc(Cl)c3)(C(F)(F)F)C2)cc1C (centres unmarked) [Compound A27] | ≥ 80 | – | – | – | – | – | – | – |
| COc1ccc(C(=O)CONC(=N)c2ccc(C3=NOC(c4cc(Cl)cc(Cl)c4)(C(F)(F)F)C3)cc2C)cc1 (centres unmarked) [Compound A28] | – | – | little or no damage | little or no damage | little or no damage | little or no damage | little or no damage | little or no damage |
| Cc1cc(C2=NOC(c3cc(Cl)cc(Cl)c3)(C(F)(F)F)C2)ccc1C(=N)NOCc1sc(Cl)nc1C(F)(F)F (centres unmarked) [Compound A32] | – | – | little or no damage | little or no damage | little or no damage | little or no damage | little or no damage | little or no damage |
| CCOC(=O)c1ccc(CONC(=N)c2ccc(C3=NOC(c4cc(Cl)cc(Cl)c4)(C(F)(F)F)C3)cc2C)o1 (centres unmarked) [Compound A33] | – | – | little or no damage | little or no damage | little or no damage | little or no damage | little or no damage | little or no damage |

Source: US8193221B2, “Insecticidal compounds” (Syngenta Crop Protection LLC, priority 2007, dated 2012)
